Data published in PubChem BioAssay (NCI).
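Briefly, cells in 96-well plates were exposed to five compound concentrations for 48 h, and endpoints were estimated by linear interpolation. GI50 = concentration required for 50% inhibition of growth. TGI: total growth inhibition.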

Assays:
Experiment in all cases: NCI anticancer screen, dose series, 48 h
SNB-75 CNS = system: SNB-75 CNS
MOLT-4 leukemia = system: MOLT-4 leukemia
CAKI-1 renal = system: CAKI-1 renal
SF-268 CNS = system: SF-268 CNS
A549 NSCLC = system: A549 NSCLC
SR leukemia = system: SR leukemia
KM12 colon = system: KM12 colon
UO-31 renal = system: UO-31 renal
SF-295 CNS = system: SF-295 CNS
OVCAR-3 ovarian = system: OVCAR-3 ovarian
OVCAR-4 ovarian = system: OVCAR-4 ovarian
SK-OV-3 ovarian = system: SK-OV-3 ovarian
MALME-3M melanoma = system: MALME-3M melanoma
MDA-MB-231 breast = system: MDA-MB-231 breast
ACHN renal = system: ACHN renal
HL-60(TB) leukemia = system: HL-60(TB) leukemia
HCT-15 colon = system: HCT-15 colon
786-0 renal = system: 786-0 renal
HCC-2998 colon = system: HCC-2998 colon
HOP-62 NSCLC = system: HOP-62 NSCLC
NCI-H226 lung = system: NCI-H226 lung
UACC-257 melanoma = system: UACC-257 melanoma
BT-549 breast = system: BT-549 breast
T-47D breast = system: T-47D breast
SF-539 CNS = system: SF-539 CNS
NCI/ADR-RES ovarian = system: NCI/ADR-RES ovarian
K-562 leukemia = system: K-562 leukemia
OVCAR-5 ovarian = system: OVCAR-5 ovarian
TK-10 renal = system: TK-10 renal
MDA-MB-435 = system: MDA-MB-435
EKVX NSCLC = system: EKVX NSCLC
OVCAR-8 ovarian = system: OVCAR-8 ovarian
NCI-H460 lung = system: NCI-H460 lung
SK-MEL-2 melanoma = system: SK-MEL-2 melanoma
MCF7 breast = system: MCF7 breast
SN12C renal = system: SN12C renal
RPMI-8226 leukemia = system: RPMI-8226 leukemia
LOX IMVI melanoma = system: LOX IMVI melanoma
HT29 colon = system: HT29 colon
UACC-62 melanoma = system: UACC-62 melanoma
PC-3 prostate = system: PC-3 prostate
SK-MEL-5 melanoma = system: SK-MEL-5 melanoma
HCT-116 colon = system: HCT-116 colon
SW-620 colon = system: SW-620 colon
HS 578T breast = system: HS 578T breast
M14 melanoma = system: M14 melanoma
RXF 393 renal = system: RXF 393 renal
HOP-92 NSCLC = system: HOP-92 NSCLC
SNB-19 CNS = system: SNB-19 CNS
IGROV1 ovarian = system: IGROV1 ovarian
DU-145 prostate = system: DU-145 prostate
NCI-H522 lung = system: NCI-H522 lung
CCRF-CEM leukemia = system: CCRF-CEM leukemia
COLO 205 colon = system: COLO 205 colon
SK-MEL-28 melanoma = system: SK-MEL-28 melanoma
NCI-H23 lung = system: NCI-H23 lung
U251 CNS = system: U251 CNS
A498 renal = system: A498 renal

`Cc1cn(-c2cc(NC(=O)c3cncc(C#Cc4cnc5ccc(O[C@@H]6CCOC6)nn45)c3)cc(C(F)(F)F)c2)cn1` showed a GI50 (SNB-75 CNS) of under 43.6 nM, a TGI (SNB-75 CNS) of 226 nM and a GI50 (MOLT-4 leukemia) of 64.2 nM. The TGI (MOLT-4 leukemia) was 678 nM, the GI50 (CAKI-1 renal) was 495 nM and the TGI (CAKI-1 renal) was 1510 nM. For the same compound, the GI50 (SF-268 CNS) was 191 nM, the TGI (SF-268 CNS) was 1030 nM and the GI50 (A549 NSCLC) was 206 nM. The TGI (A549 NSCLC) was 958 nM, the GI50 (SR leukemia) was 52.7 nM and the TGI (SR leukemia) was 936 nM. It also gave a TGI (KM12 colon) of 1790 nM, a GI50 (UO-31 renal) of 1450 nM and a TGI (UO-31 renal) of 3550 nM. For the same compound, the GI50 (SF-295 CNS) was 355 nM, the TGI (SF-295 CNS) was 2410 nM and the GI50 (OVCAR-3 ovarian) was 217 nM. It also gave a TGI (OVCAR-3 ovarian) of 849 nM, a GI50 (OVCAR-4 ovarian) of 155 nM and a TGI (OVCAR-4 ovarian) of 1000 nM. The GI50 (SK-OV-3 ovarian) was 392 nM, the TGI (SK-OV-3 ovarian) was 2230 nM and the GI50 (MALME-3M melanoma) was 164 nM. For the same compound, the TGI (MALME-3M melanoma) was 693 nM, the GI50 (MDA-MB-231 breast) was 74 nM and the TGI (MDA-MB-231 breast) was 403 nM. The GI50 (ACHN renal) was 689 nM, the TGI (ACHN renal) was 2770 nM and the GI50 (HL-60(TB) leukemia) was 181 nM. For the same compound, the TGI (HL-60(TB) leukemia) was 613 nM, the GI50 (HCT-15 colon) was 687 nM and the TGI (HCT-15 colon) was 2370 nM. It also gave a GI50 (786-0 renal) of 286 nM, a TGI (786-0 renal) of 936 nM and a GI50 (HCC-2998 colon) of 320 nM. It also gave a TGI (HCC-2998 colon) of 1500 nM, a GI50 (HOP-62 NSCLC) of 183 nM and a TGI (HOP-62 NSCLC) of 883 nM. For the same compound, the GI50 (NCI-H226 lung) was 56.6 nM, the TGI (NCI-H226 lung) was 454 nM and the GI50 (UACC-257 melanoma) was 467 nM. It also gave a TGI (UACC-257 melanoma) of 2750 nM, a GI50 (BT-549 breast) of 625 nM and a TGI (BT-549 breast) of 1730 nM. The GI50 (T-47D breast) was 442 nM, the TGI (T-47D breast) was 4260 nM and the GI50 (SF-539 CNS) was 39.8 nM. For the same compound, the TGI (SF-539 CNS) was 231 nM, the GI50 (NCI/ADR-RES ovarian) was 6460 nM and the TGI (NCI/ADR-RES ovarian) was 23100 nM. The TGI (K-562 leukemia) was 3250 nM, the GI50 (OVCAR-5 ovarian) was 268 nM and the TGI (OVCAR-5 ovarian) was 1670 nM. The GI50 (TK-10 renal) was 362 nM, the TGI (TK-10 renal) was 1560 nM and the GI50 (MDA-MB-435) was 144 nM. It also gave a TGI (MDA-MB-435) of 714 nM, a GI50 (EKVX NSCLC) of 257 nM and a TGI (EKVX NSCLC) of 1270 nM. It also gave a GI50 (OVCAR-8 ovarian) of 257 nM, a TGI (OVCAR-8 ovarian) of 1140 nM and a GI50 (NCI-H460 lung) of 144 nM. For the same compound, the TGI (NCI-H460 lung) was 699 nM, the GI50 (SK-MEL-2 melanoma) was 210 nM and the TGI (SK-MEL-2 melanoma) was 512 nM. For the same compound, the GI50 (MCF7 breast) was 72.9 nM, the TGI (MCF7 breast) was 717 nM and the GI50 (SN12C renal) was 85.6 nM. It also gave a TGI (SN12C renal) of 601 nM, a GI50 (RPMI-8226 leukemia) of 397 nM and a GI50 (LOX IMVI melanoma) of 85.6 nM. The TGI (LOX IMVI melanoma) was 535 nM, the GI50 (HT29 colon) was 188 nM and the TGI (HT29 colon) was 947 nM. The GI50 (UACC-62 melanoma) was 204 nM, the TGI (UACC-62 melanoma) was 949 nM and the GI50 (PC-3 prostate) was 280 nM. For the same compound, the TGI (PC-3 prostate) was 4210 nM, the GI50 (SK-MEL-5 melanoma) was 615 nM and the TGI (SK-MEL-5 melanoma) was 1710 nM. It also gave a GI50 (HCT-116 colon) of 79.7 nM, a TGI (HCT-116 colon) of 616 nM and a GI50 (SW-620 colon) of 157 nM. The TGI (SW-620 colon) was 557 nM, the GI50 (HS 578T breast) was 124 nM and the TGI (HS 578T breast) was 559 nM. For the same compound, the GI50 (M14 melanoma) was 138 nM, the TGI (M14 melanoma) was 353 nM and the GI50 (RXF 393 renal) was 215 nM. The TGI (RXF 393 renal) was 535 nM, the GI50 (HOP-92 NSCLC) was 22.8 nM and the TGI (HOP-92 NSCLC) was 96.3 nM. It also gave a GI50 (SNB-19 CNS) of 261 nM, a TGI (SNB-19 CNS) of 1750 nM and a GI50 (IGROV1 ovarian) of 103 nM. The TGI (IGROV1 ovarian) was 534 nM, the GI50 (DU-145 prostate) was 222 nM and the TGI (DU-145 prostate) was 1580 nM. It also gave a GI50 (NCI-H522 lung) of 111 nM, a TGI (NCI-H522 lung) of 330 nM and a GI50 (CCRF-CEM leukemia) of 48.6 nM. It also gave a GI50 (COLO 205 colon) of 75.7 nM, a TGI (COLO 205 colon) of 213 nM and a GI50 (SK-MEL-28 melanoma) of 312 nM. The TGI (SK-MEL-28 melanoma) was 1090 nM, the GI50 (NCI-H23 lung) was 190 nM and the TGI (NCI-H23 lung) was 784 nM. It also gave a GI50 (U251 CNS) of 246 nM, a TGI (U251 CNS) of 1020 nM and a GI50 (A498 renal) of 504 nM. The TGI (A498 renal) was 1090 nM.
